In patent publication US9163020B2, “Azaindole compounds, synthesis thereof, and methods of using the same” (Global Alliance for TB Drug Development, priority 2013, dated 2015):
Values after ≈ are worked out from the molar mass of the structure shown. Where two headings read alike, the source gives them in different places.

Experiments:
hERG = hERG (Homo sapiens, UniProt Q12809); test: hERG assay, IonWorks electrophysiology
Protocol: Compounds were tested on voltage-gated ion channels using the medium-throughput electrophysiology IonWorks™ device. […] For carrying out the experiment, a boat in the “Cells” position of the IonWorks™ instrument was loaded with the cell suspension, and a 96-well PBS destination plate was placed in the “Plate 1” position. A 384-well PatchPlate™ was placed in the IonWorks™ plenum and held in position using the plenum clamp. From this point the experiment progress is automated and ultimately reports a non-cumulative concentration-effect curve for test compound.

[1] = format: in vitro ADME
Protocol: 1 μM compound was incubated with 1 mg/mL of microsomes (Pooled HLM/MLM with 20 mg/ml protein cone.) at 37° C. in 166 μL of buffer (100 mM phosphate buffer, pH-7.4) containing 2 mM NADPH solution. […] The quench plate was centrifuged at 4000 rpm for 15 min. 30 μL of supernatant was diluted to 300 μL with 50% acetonitrile in water and substrate depletion was analyzed using LC-MS/MS.

in vivo [2] = conditions: male, Wistar, rat, po, 100 mg/kg
[3] = test system: CYP1A2, CYP2C9, CYP2C19, CYP2D6, CYP3A4; conditions: CYP1A2, CYP2C9, CYP2C19, CYP2D6, CYP3A4
[4] = Protocol: Viability of cryopreserved hepatocytes was determined using trypan blue and the cell conc. was adjusted to 10^6 cells per mL with buffer (KHB buffer). 1 μM compound (in Acetonitrile; 0.01% DMSO) was incubated with 500 μL of hepatocyte cells (1 million cells per mL) in a NUNC plate. […] Supernatants were analyzed using LC-MS/MS for substrate depletion.
[5] = test system: A549 human lung carcinoma cells; format: cell-based; conditions: 72 hours treatment; Table 4
Protocol: The in vitro cytotoxicity of compounds were measured against A549 human lung carcinoma cells as describedin Eakin et. al (2012). Briefly, A549 cells (ATCC) were grown in RPMI medium (GIBCO-BRL) containing 10% heat-inactivated fetal bovine serum (GIBCO-BRL) and 1 mM L-glutamine (GIBCO-BRL) at a density of 1,000 cells/well. After incubation of the cells with compound in a CO2 atmosphere at 37° C. for 72 hours, cell viability was determined following addition of […] of resazurin solution (Sigma), by measuring fluorescence (excitation at 535 nm, emission at 590 nm) using a fluorimeter.

in vivo [6] = test: in vivo
Protocol: PK of azaindoles compounds was performed in mice (healthy and infected) and rats. Mice were pretreated with 100 mg/kg ABT two hours prior to the compound administration. PK data from healthy mice was used to design the dosing regimen for the efficacy study while, information from infected mice was used for the PK-PD analysis.
All oral administration was performed as suspensions in 0.5% HPMC, and 0.1% Tween 80. […] All blood samples were collected via sapheneous vein into Microvette CB300® (Starstedt, Germany) tubes coated with Lithium-Heparin, and plasma was prepared from the collected blood by centrifugation.
One mg/mL stock solution of each compound was prepared in Dimethylsulfoxide (DMSO) and diluted two-fold with acetonitrile. A sixteen point calibration curve was utilized for each analyte, and the standard curves ranged from 0.001 to 40 μg/mL. Plasma/BAL samples were precipitated by adding chilled acetonitrile (1:10 v/v) containing carbamazepine as internal standard (250 ng/mL). Samples were vortexed, and centrifuged at 4000 rpm for 30 min at 10° C. The resulting supernatant was mixed with mobile phase (50% acetonitrile in water with 0.1% formic acid). […] of sample was injected on to a liquid chromatographic system (Waters-ACQUTY UPLC) coupled to triple quadrupole mass spectrometer (Waters-ACQUTY-TQD; MS/MS). Samples were acquired in positive ion mode and detected by multiple reaction monitoring (MRM). Concentrations of the analyte were determined from a standard curve obtained by plotting known concentrations of the analyte against peak area ratios (analyte/internal standard peak response).
PK analysis of the plasma concentration-time relationships were performed with WinNonlin Phoenix Software (version 6.2; Pharsight, USA). […] The maximum concentration of drug in plasma (Cmax), time to Cmax (Tmax), elimination half-life (t1/2), and AUC from time zero to infinity (AUC0-∞) were estimated. […] Minimum of three sample points in the terminal slope were used to estimate to calculate half-life.

[7] = test system: Mycobacterium tuberculosis (Mtb) H37Rv ATCC 27294; test: microbe, parasite or virus in culture; format: cell-based; conditions: Mycobacterium tuberculosis, read-out: Mtb MIC
[8] = test system: panel of human targets and cardiac channels
[9] = test system: Mycobacterium tuberculosis (Mtb) H37Rv; test: Mtb minimal bactericidal concentration (MBC), plating from MIC plates; format: cell-based; conditions: Table 4, read-out: Mtb MBC
Protocol: Aliquots from sample wells (MIC and higher) from the MIC plates were diluted 1:10 and plated on 7H10 agar plates. Plates were incubated at 37° C. for 3-4 weeks, CFU was enumerated.

[10] = test system: hypoxia induced non-replicating persistent (NRP) Mtb cells; test: Activity against hypoxia induced non-replicating persistent (NRP) Mtb (HBC, Wayne model); format: cell-based, Mycobacterium tuberculosis; conditions: hypoxic conditions, Wayne model; Table 4
in vitro = in vitro ADME; conditions: pH 7.4; mouse microsomes; read-out: Mo micrsomal Clint
Protocol: 1 μM compound was incubated with 1 mg/mL of microsomes (Pooled HLM/MLM with 20 mg/ml protein cone.) at 37° C. in 166 μL of buffer (100 mM phosphate buffer, pH-7.4) containing 2 mM NADPH solution. 20 μL of incubation mix was quenched with 4 volumes chilled acetonitrile at different time points i.e. 0, 2, 5, 10, 20 and 30 min in a fresh 96 well plate. The quench plate was centrifuged at 4000 rpm for 15 min. 30 μL of supernatant was diluted to 300 μL with 50% acetonitrile in water and substrate depletion was analyzed using LC-MS/MS.

[11] = Wistar, rat, in vivo, iv, 2 mg/kg
[12] = Wistar, rat, in vivo, po, 20 mg/kg

hERG, sequence (Q12809 whole entry): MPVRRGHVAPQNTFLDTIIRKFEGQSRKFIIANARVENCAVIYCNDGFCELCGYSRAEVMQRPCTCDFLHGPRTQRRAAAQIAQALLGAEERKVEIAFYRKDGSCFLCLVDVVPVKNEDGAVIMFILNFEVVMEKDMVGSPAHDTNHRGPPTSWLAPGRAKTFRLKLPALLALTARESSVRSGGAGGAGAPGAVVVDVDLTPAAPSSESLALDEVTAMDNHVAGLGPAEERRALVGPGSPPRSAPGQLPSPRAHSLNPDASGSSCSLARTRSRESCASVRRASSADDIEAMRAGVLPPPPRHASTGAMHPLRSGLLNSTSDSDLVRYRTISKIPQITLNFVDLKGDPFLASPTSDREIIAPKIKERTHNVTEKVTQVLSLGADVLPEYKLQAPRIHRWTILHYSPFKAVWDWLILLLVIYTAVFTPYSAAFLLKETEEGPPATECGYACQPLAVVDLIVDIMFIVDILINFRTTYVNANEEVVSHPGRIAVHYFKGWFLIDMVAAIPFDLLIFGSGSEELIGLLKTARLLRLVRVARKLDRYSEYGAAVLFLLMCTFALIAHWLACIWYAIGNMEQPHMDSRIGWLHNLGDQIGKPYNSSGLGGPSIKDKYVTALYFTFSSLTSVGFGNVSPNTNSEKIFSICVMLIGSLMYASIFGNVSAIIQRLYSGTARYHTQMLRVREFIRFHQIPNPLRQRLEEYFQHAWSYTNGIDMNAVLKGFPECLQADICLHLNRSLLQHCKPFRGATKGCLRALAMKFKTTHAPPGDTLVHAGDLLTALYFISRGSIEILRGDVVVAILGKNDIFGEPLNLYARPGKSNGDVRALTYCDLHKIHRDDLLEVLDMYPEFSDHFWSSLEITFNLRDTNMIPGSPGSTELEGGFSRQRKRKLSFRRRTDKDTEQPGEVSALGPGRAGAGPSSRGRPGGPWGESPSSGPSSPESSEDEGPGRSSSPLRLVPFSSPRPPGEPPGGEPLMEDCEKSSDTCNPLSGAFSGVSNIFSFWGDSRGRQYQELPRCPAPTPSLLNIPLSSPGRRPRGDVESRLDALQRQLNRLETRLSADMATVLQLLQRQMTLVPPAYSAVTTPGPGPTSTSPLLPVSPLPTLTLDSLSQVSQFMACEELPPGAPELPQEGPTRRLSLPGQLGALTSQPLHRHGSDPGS

COc1ncnc(Cn2cc(C(=O)NCCO)c3ncc(C)cc32)c1C [Compound 17, N-(2-hydroxyethyl)-1-((6-methoxy-5-methylpyrimidin-4-yl)methyl)-6-methyl-1H-pyrrolo[3,2-b]pyridine-3-carboxamide]
hERG (hERG): >33 µM | predicted clearance ([1]; human, rat): 4-18 % of liver blood flow (% LBF) | Human CLpred microsomes (% LBF) ([1]; pH 7.4): 16.1 % LBF | AUC(0-inf) (in vivo [2]): 986 ± 274 µM·h | Cmax (in vivo [2]): 46.1 ± 7.7 µM | Tmax (in vivo [2]): 5.3 ± 1.2 h | half-life (in vivo [2]): 3.8 ± 0.6 h | CYP inhibition [3]: >50 µM | Human CLpred hepatocytes (% LBF) [4]: 9.2 % LBF | Rat CLpred hepatocytes (% LBF) [4]: 17.9 % LBF | MMIC (A549) [5]: >100 µM | AUC(0-inf) (in vivo [6]; BALB/c, mouse, po, 50 mg/kg): 420 ± 23.5 µM·h | Cmax (in vivo [6]; BALB/c, mouse, po, 50 mg/kg): 74.8 ± 15.6 µM | Tmax (in vivo [6]; BALB/c, mouse, po, 50 mg/kg): 1.33 ± 0.58 h | half-life (in vivo [6]; BALB/c, mouse, po, 50 mg/kg): 1.78 ± 0.1 h | C0h (in vivo [6]; Wistar rats, IV 2 mg/kg, n = 2): 2.64 µM | F (in vivo [6]; Wistar rats, oral 20 mg/kg, n = 2): 100% | AUC(0-t) (in vivo [6]; [11]): 3.46 µM·h | Vd (in vivo [6]; [11]): 7.34 L/kg | clearance (in vivo [6]; [11]): 27.4 mL/min/kg | bioavailability (in vivo [6]; Wistar, rat, in vivo, po): 92% | AUC(0-inf) (in vivo [6]; [12]): 59.8 µM·h | Cmax (in vivo [6]; [12]): 17.8 µM | Tmax (in vivo [6]; [12]): 0.5 h | half-life (in vivo [6]; [12]): 2.74 h | MIC ([7]; Table 1): 1.56 µM (≈ 0.554 µg/mL) | MIC ([7]; Table 4): 1.56 to 3.12 µM (≈ 0.554 to 1.11 µg/mL) | Secondary pharmacology hits IC50 [8]: No significant hits | in vitro safety profiling [8]: no major safety liabilities | MBC [9]: 0.78 to 1.56 µM (≈ 0.277 to 0.554 µg/mL) | Mtb HBC [10]: >100 µM | microsomal CLint (in vitro): 25 µL/min/mg
